US20190134005A1 (BioMarin Pharmaceutical Inc., priority 2016, published 2019)
Like-named read-outs stand apart in the source and are kept apart here.

Molecular target: T1, human CGT (Homo sapiens, UniProt Q16880)
T1 sequence (Q16880 21-541): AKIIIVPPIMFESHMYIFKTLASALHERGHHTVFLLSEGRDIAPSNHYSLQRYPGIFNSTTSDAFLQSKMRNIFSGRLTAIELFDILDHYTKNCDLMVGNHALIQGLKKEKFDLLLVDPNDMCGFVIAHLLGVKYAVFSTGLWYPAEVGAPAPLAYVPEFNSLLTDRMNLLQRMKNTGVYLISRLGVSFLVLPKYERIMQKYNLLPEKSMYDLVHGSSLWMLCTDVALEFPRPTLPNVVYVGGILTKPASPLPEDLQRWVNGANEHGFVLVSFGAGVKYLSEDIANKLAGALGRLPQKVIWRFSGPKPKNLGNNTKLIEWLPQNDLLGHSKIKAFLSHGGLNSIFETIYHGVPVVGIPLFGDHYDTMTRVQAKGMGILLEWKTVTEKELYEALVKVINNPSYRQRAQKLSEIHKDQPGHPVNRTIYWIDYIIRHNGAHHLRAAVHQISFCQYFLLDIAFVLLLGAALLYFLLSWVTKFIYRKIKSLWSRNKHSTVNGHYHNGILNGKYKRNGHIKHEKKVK
Experiment: Assay 1: CGT Enzymatic Assay (RapidFire/MS/MS, 0.01% Tween 80)
Format: biochemical
Details: Table 1, Compounds of Formula (I) and Formula (II), CGT enzymatic assay, read-out: IC50

[1] = C6-NBD-dihydro-galactosylceramide readout

Compound	IC50 [1]	IC50
Cc1ccc(N2C(=O)N(c3ccc(Cl)cc3)C3(COC3)C2(O)c2cccc(OC(F)(F)F)c2)cc1 (stereo not shown) [Compound 299, 5-(4-chlorophenyl)-8-hydroxy-7-(p-tolyl)-8-(3-(trifluoromethoxy)phenyl)-2-oxa-5,7-diazaspiro[3.4]octan-6-one]	< 1000 nM	–
CC1N(c2ccc(C#N)cc2)C(=O)N(c2ccc(C#N)cc2)C1(O)c1cccc(OC(F)(F)F)c1 (stereo not shown) [Example 180, 4,4′-(4-hydroxy-5-methyl-2-oxo-4-(3-(trifluoromethoxy)phenyl)imidazolidine-1,3-diyl)dibenzonitrile]	–	1000 to 10000 nM
CCC1N(c2ccc(Cl)cc2)C(=O)N(c2ccc(Cl)cc2)C1(O)c1cccc(OC(F)(F)F)c1 (stereo in doubt) [Compound 82-2, (5R)-1,3-bis(4-chlorophenyl)-5-ethyl-4-hydroxy-4-(3-(trifluoromethoxy)phenyl)imidazolidin-2-one]	–	< 1000 nM
CCC[C@H]1N(c2ccc(Cl)cc2)C(=O)N(c2ccc(Cl)cc2)C1(O)c1cccc(C#N)c1 (stereo partly drawn) [Compound 101-2, 3-((5R)-1,3-bis(4-chlorophenyl)-4-hydroxy-2-oxo-5-propylimidazolidin-4-yl)benzonitrile]	–	< 1000 nM
Cc1cccc(C2(C)C(O)N(c3ccc(Cl)cc3)C(=O)N2c2ccc(Cl)cc2)c1 (stereo not shown) [Example 222, 1,3-bis(4-chlorophenyl)-5-hydroxy-4-methyl-4-(m-tolyl)imidazolidin-2-one]	–	< 1000 nM
O=C1N(c2ccc(Cl)cc2Cl)CC(O)(c2ccccc2)N1c1ccc(Cl)cc1Cl (stereo not shown) [Example 57, 1,3-bis(2,4-dichlorophenyl)-4-hydroxy-4-phenylimidazolidin-2-one]	–	> 50000 nM
C[C@@]1(C(F)(F)F)N(c2ccc(Cl)cc2)C(=O)N(c2ccc(Cl)cc2)C1(O)c1cc(C#N)cc(C#N)c1 (stereo partly drawn) [Example 331-2, 5-((5R)-1,3-bis(4-chlorophenyl)-4-hydroxy-5-methyl-2-oxo-5-(trifluoromethyl)imidazolidin-4-yl)isophthalonitrile]	< 1000 nM	–
Cc1c(-c2cccc(OC(F)(F)F)c2)n(-c2ccc(Br)cc2)c(=O)n1-c1ccc(Br)cc1 [Compound 262, 1,3-bis(4-bromophenyl)-4-methyl-5-(3-(trifluoromethoxy)phenyl)-1,3-dihydro-2H-imidazol-2-one]	–	1000 to 10000 nM
CC[C@H]1N(c2ccc(Cl)cc2)C(=O)N(c2ccc(Cl)cc2)C1(O)c1cccc(C#N)c1 (single isomer, unassigned) [Compound 106-2]	–	< 1000 nM
O=C1N(c2ccc(Cl)c(Cl)c2)CC(O)(c2ccccc2)N1c1ccc(Cl)c(Cl)c1 (stereo not shown) [Example 32, 1,3-bis(3,4-dichlorophenyl)-4-hydroxy-4-phenylimidazolidin-2-one]	–	1000 to 10000 nM
N#Cc1cccc(C2(O)N(c3ccc(Cl)cc3)C(=O)N(c3ccc(Cl)cc3)C23CCC3)c1 (stereo not shown) [Compound 72, 3-(5,7-bis(4-chlorophenyl)-8-hydroxy-6-oxo-5,7-diazaspiro[3.4]octan-8-yl)benzonitrile]	–	< 1000 nM
O=C1N(c2ccc(Cl)cc2)C2(COC2)C(O)(c2cccc(OC(F)(F)F)c2)N1c1ccc(Cl)cc1 (stereo not shown) [Compound 150, 5,7-bis(4-chlorophenyl)-8-hydroxy-8-(3-(trifluoromethoxy)phenyl)-2-oxa-5,7-diazaspiro[3.4]octan-6-one]	–	< 1000 nM
C[C@@]1(c2cccc(C(F)(F)F)c2)C(O)N(c2ccc(Br)cc2)C(=O)N1c1ccc(Br)cc1 (stereo partly drawn) [Example 219-2, (4R)-1,3-bis(4-bromophenyl)-5-hydroxy-4-methyl-4-(3-(trifluoromethyl)phenyl)imidazolidin-2-one]	–	< 1000 nM
N#Cc1cccc(C2(O)[C@H](C3CCC3)N(c3ccc(Cl)cc3)C(=O)N2c2ccc(Cl)cc2)c1 (stereo partly drawn) [Example 194-1, 3-((5S)-1,3-bis(4-chlorophenyl)-5-cyclobutyl-4-hydroxy-2-oxoimidazolidin-4-yl)benzonitrile]	–	< 1000 nM
O=C1N(c2ccc(Cl)cc2)C2(CCC2)C(O)(c2cccc(OC(F)(F)F)c2)N1c1ccccc1 (stereo not shown) [Example 332, 5-(4-chlorophenyl)-8-hydroxy-7-phenyl-8-(3-(trifluoromethoxy)phenyl)-5,7-diazaspiro[3.4]octan-6-one]	< 1000 nM	–
COc1cccc([C@@]2(C)C(O)N(c3ccc(Br)cc3)C(=O)N2c2ccc(Br)cc2)c1 (single isomer, unassigned) [Compound 126-1]	–	> 50000 nM
CC[C@]1(C)N(c2ccc(C#N)cc2)C(=O)N(c2ccc(C#N)cc2)C1(O)c1cccc(OC(F)(F)F)c1 (stereo partly drawn) [Example 319-2, 4′-((4S)-4-ethyl-5-hydroxy-4-methyl-2-oxo-5-(3-(trifluoromethoxy)phenyl)imidazolidine-1,3-diyl)dibenzonitrile]	< 1000 nM	–

Compound	IC50 [1]	IC50
Cc1ccc(N2C(=O)N(c3ccc(C)cc3)C(O)(c3cccc(OC(F)(F)F)c3)C2C(C)C)cc1 (stereo not shown) [Compound 235, 4-hydroxy-5-isopropyl-1,3-di-p-tolyl-4-(3-(trifluoromethoxy)phenyl)imidazolidin-2-one]	–	< 1000 nM
CC[C@H]1N(c2ccc(Cl)cc2)C(=O)N(c2ccc(Cl)cc2)C1(O)c1cccc(C)c1 (stereo partly drawn) [Compound 75-2, (5R)-1,3-bis(4-chlorophenyl)-5-ethyl-4-hydroxy-4-(m-tolyl)imidazolidin-2-one]	–	< 1000 nM
CC1(c2cccc(Cl)c2)C(O)N(c2ccc(Cl)cc2)C(=O)N1c1ccc(Cl)cc1 (stereo not shown) [Compound 149, 4-(3-chlorophenyl)-1,3-bis(4-chlorophenyl)-5-hydroxy-4-methylimidazolidin-2-one]	–	< 1000 nM
COCC1(C)N(c2ccc(Cl)cc2)C(=O)N(c2ccc(Cl)cc2)C1(O)c1cccc(C#N)c1 (stereo not shown) [Compound 297, 3-(1,3-bis(4-chlorophenyl)-4-hydroxy-5-(methoxymethyl)-5-methyl-2-oxoimidazolidin-4-yl)benzonitrile]	< 1000 nM	–
N#Cc1cc(Cl)cc(C2(O)CN(c3ccc(Br)cc3)C(=O)N2c2ccc(Cl)cc2)c1 (stereo not shown) [Compound 110, 3-(1-(4-bromophenyl)-3-(4-chlorophenyl)-4-hydroxy-2-oxoimidazolidin-4-yl)-5-chlorobenzonitrile]	–	< 1000 nM
C[C@H]1N(c2ccc(Br)cc2)C(=O)N(c2ccc(Br)cc2)C1(O)c1cccc(OC(F)(F)F)c1 (stereo partly drawn) [Compound 66-2, (5R)-1,3-bis(4-bromophenyl)-4-hydroxy-5-methyl-4-(3-(trifluoromethoxy)phenyl)imidazolidin-2-one]	–	< 1000 nM
O=C1N(c2ccc(Cl)cc2)CC(O)(c2cccc(Cl)c2)N1c1ccc(Cl)cc1 (stereo not shown) [Example 39, 4-(3-chlorophenyl)-1,3-bis(4-chlorophenyl)-4-hydroxyimidazolidin-2-one]	–	< 1000 nM
C#Cc1cc(Cl)cc(C2(O)CN(c3ccc(Cl)cc3)C(=O)N2c2ccc(Cl)cc2)c1 (stereo not shown) [Compound 108, 4-(3-chloro-5-ethynylphenyl)-1,3-bis(4-chlorophenyl)-4-hydroxyimidazolidin-2-one]	–	1000 to 10000 nM
CC[C@@H]1N(c2ccc(Cl)cc2)C(=O)N(c2ccc(Cl)cc2)C1(O)c1cccc(OC(F)F)c1 (stereo partly drawn) [Compound 118-1, (5S)-1,3-bis(4-chlorophenyl)-4-(3-(difluoromethoxy)phenyl)-5-ethyl-4-hydroxyimidazolidin-2-one]	–	< 1000 nM
CC[C@@]1(C)N(c2ccc(Cl)cc2)C(=O)N(c2ccc(Cl)cc2)C1(O)c1cccc(OC(F)(F)F)c1 (single isomer, unassigned) [Example 163-1]	–	1000 to 10000 nM
COc1ccc(N2C(=O)N(c3ccc(OC)cc3)C(O)(c3cccc(OC(F)(F)F)c3)[C@@H]2C(C)C)cc1 (stereo partly drawn) [Example 329-1, (5S)-4-hydroxy-5-isopropyl-1,3-bis(4-methoxyphenyl)-4-(3-(trifluoromethoxy)phenyl)imidazolidin-2-one]	1000 to 10000 nM	–
COc1ccc(N2C(=O)N(c3ccc(OC)cc3)C(O)(c3cccc(OC(F)(F)F)c3)C2(C)C)cc1 (stereo not shown) [Compound 241, 4-hydroxy-1,3-bis(4-methoxyphenyl)-5,5-dimethyl-4-(3-(trifluoromethoxy)phenyl)imidazolidin-2-one]	–	< 1000 nM
C[C@@H]1N(c2ccc(F)cc2)C(=O)N(c2ccc(F)cc2)C1(O)c1cccc(OC(F)(F)F)c1 (stereo partly drawn) [Compound 130-1, (5S)-1,3-bis(4-fluorophenyl)-4-hydroxy-5-methyl-4-(3-(trifluoromethoxy)phenyl)imidazolidin-2-one]	–	< 1000 nM
C[C@H]1N(c2ccc(Br)cc2)C(=O)N(c2ccc(Br)cc2)C1(O)c1cccc(C(F)(F)F)c1 (stereo partly drawn) [Compound 74-2, (5R)-1,3-bis(4-bromophenyl)-4-hydroxy-5-methyl-4-(3-(trifluoromethyl)phenyl)imidazolidin-2-one]	–	< 1000 nM
O=C1N(c2ccc(OC3CCCC3)cc2)C(=O)C(O)(c2ccccc2)N1c1ccc(OC2CCCC2)cc1 (stereo not shown) [Example 168, 1,3-bis(4-(cyclopentyloxy)phenyl)-5-hydroxy-5-phenylimidazolidine-2,4-dione]	–	> 50000 nM
N#Cc1ccc(N2C(=O)N(c3ccccc3)C3(CCC3)C2(O)c2cccc(OC(F)(F)F)c2)cc1 (stereo not shown) [Example 335, 4-(8-hydroxy-6-oxo-5-phenyl-8-(3-(trifluoromethoxy)phenyl)-5,7-diazaspiro[3.4]octan-7-yl)benzonitrile]	< 1000 nM	–
CC(=O)c1cccc(C2(O)C(C)N(c3ccc(Cl)cc3)C(=O)N2c2ccc(Cl)cc2)c1 (stereo not shown) [Compound 124, 4-(3-acetylphenyl)-1,3-bis(4-chlorophenyl)-4-hydroxy-5-methylimidazolidin-2-one]	–	< 1000 nM
